ChEMBL document CHEMBL1131662, “Synthesis and structure-activity relationship of potent bicyclic lactam thrombin inhibitors” (Bioorg Med Chem Lett, 1999)

The compounds below were run against T1, Prothrombin (Homo sapiens, UniProt P00734) (assay: In vitro inhibitory activity against human thrombin.( Fast moving component on HPLC)).

| Structure (SMILES) | Ki |
| --- | --- |
| C[C@]12CC[C@@H](CCCc3ccccc3)C(=O)N1[C@H](C(=O)NC(CCCN=C(N)N)C(=O)c1nccs1)CS2 (stereo not given in full) | 0.002 µM |

Each compound was assayed against T1, Prothrombin (assay: In vitro inhibitory activity against human thrombin.(Slow moving component on HPLC)).

| Structure (SMILES) | Ki |
| --- | --- |
| C[C@]12CC[C@@H](CCCc3ccccc3)C(=O)N1[C@H](C(=O)NC(CCCN=C(N)N)C(=O)c1nccs1)CS2 (stereo not given in full) | 0.006 µM |

The compounds below were run against T1, Prothrombin (assay: In vitro inhibitory activity against human thrombin.).

| Ki | Structure (SMILES) |
| --- | --- |
| 0.235 µM | C[C@]12CC[C@@H](CCc3ccccc3)C(=O)N1[C@H](C(=O)NC(CCCN=C(N)N)C(=O)c1nc3ccccc3s1)CS2 (stereo not given in full) |
| 0.15 µM | C[C@]12CC[C@H](c3ccc4nc(C(F)(F)F)ccc4c3)C(=O)N1[C@H](C(=O)NC(CCCN=C(N)N)C(=O)c1nccs1)CS2 (stereo not given in full) |
| 0.018 µM | C[C@]12CC[C@@H](c3ccc4nc(C(F)(F)F)ccc4c3)C(=O)N1[C@H](C(=O)NC(CCCN=C(N)N)C(=O)c1nc3ccccc3s1)CS2 (stereo not given in full) |
| 0.55 µM | C[C@]12CC[C@H](CCc3ccccc3)C(=O)N1[C@H](C(=O)NC(CCCN=C(N)N)C(=O)c1nc3ccccc3s1)CS2 (stereo not given in full) |
| 0.018 µM | C[C@]12CC[C@@H](Cc3ccccc3)C(=O)N1[C@H](C(=O)NC(CCCN=C(N)N)C(=O)c1nc3ccccc3s1)CS2 (stereo not given in full) |

The next lines start with the compound.

| Structure (SMILES) | Ki |
| --- | --- |
| C[C@]12CC[C@H](CCCc3ccccc3)C(=O)N1[C@H](C(=O)NC(CCCN=C(N)N)C(=O)c1nccs1)CS2 (stereo not given in full) | 0.1 µM |
| C[C@]12CC[C@@H](c3ccc4nc(C(F)(F)F)ccc4c3)C(=O)N1[C@H](C(=O)NC(CCCN=C(N)N)C(=O)c1nccs1)CS2 (stereo not given in full) | 0.01 µM |
| NC(N)=NCCCC(NC(=O)[C@@H]1CS[C@H]2CC[C@H](Cc3ccccc3)C(=O)N21)C(=O)c1nc2ccccc2s1 (stereo not given in full) | 1.11 µM |
